# Tested on: three-dimensional co-culture of astrocytes, neurons and microglia
# Test: Intercellular interactions during neuroinflammation: NF-κB p65 immunostaining of the three-dimensional co-culture after LPS treatment
# Assay type: cell-based, human
# Conditions: 100 ng/ml final concentration; fixed 0, 0.5, 1, 3, 6 and 24 hours after treatment; co-culture cultured for 3 weeks
# Procedure: • The three-dimensional co-culture that had been cultured for 3 weeks was treated with Lipopolysaccharide (LPS) from E. coli 0127 (FUJIFILM Wako Pure Chemical Corporation, 124-05151) such that the final concentration was 100 ng/ml, and fixed by treating, for 30 minutes, with a 4% paraformaldehyde-phosphate buffer solution (FUJIFILM Wako Pure Chemical Corporation, 161-20141) at 0, 0.5, 1, 3, 6, and 24 hours after the treatment. After washing with PBS(-), the co-culture was treated with Triton (registered trademark) X-100 solution (BioVision, 2104-100) diluted to 0.4% with PBS(-) for 15 minutes to perform permeation treatment. After the permeation treatment, the co-culture was treated with a BSA solution (Sigma-Aldrich, A416) adjusted at a concentration of 4% with PBS(-) for 30 minutes to perform blocking. […] After washing with PBS(-), imaging was performed with a confocal quantitative image cytometer CQ1 (Yokogawa Electric Corporation, Cell Voyager (registered trademark) CQ1) to acquire images.
substance,measurement,value
Lipopolysaccharide [LPS],nuclear localization of NF-κB after the LPS treatment,change in nuclear localization of NF-κB

# Source: US20260117174A1, “PRODUCTION METHOD OF THREE-DIMENSIONAL CELL CULTURE, CULTURE METHOD OF THREE-DIMENSIONAL CELL CULTURE, THREE-DIMENSIONAL CELL CULTURE, AND EVALUATION METHOD OF TEST SUBSTANCE” (FUJIFILM Corporation, priority 2023, published 2026)
